Data taken from patent US10189788B2, “Substituted N,2-diarylquinoline-4-carboxamides and the use thereof as anti-inflammatory agents” (BAYER PHARMA AKTIENGESELLSCHAFT, priority 2014, dated 2019).

Molecular target: Human FP Receptor (Homo sapiens (Human), UniProt P43088)
Assay: In vitro test of inhibition of human FP receptor activity, variant B-1A (PGF2α-induced calcium flux in FP-expressing CHEM1 cells)
Type: cell-based
Settings: calcium flux induced by 3 nM PGF2α, Fluo-8, some mean values from multiple determinations
Description: • BSA bovine serum albumin • CRTH2 chemoattractant receptor-homologous molecule expressed on T helper type 2 cells • DMEM Dulbecco's modified Eagle's medium • DMSO dimethyl sulfoxide • DP PGD2 receptor • EC50 half-maximum effective concentration • em. emission • EP PGE2 receptor • ex. excitation • FCS fetal calf serum • FP PGF2α receptor • HEPES 2-[4-(2-hydroxyethyl)piperazin-1-yl]ethanesulfonic acid • IC50 half-maximum inhibitory concentration • IP PGI2 receptor • MES 2-(N-morpholino)ethanesulfonic acid • Pen/Strep penicillin/streptomycin • PGD2 prostaglandin D2 • PGE2 prostaglandin E2 • PGF2α prostaglandin F2α • PGI2 prostaglandin […] • TC tissue culture • TP thromboxane A2 receptor • Tris tris(hydroxymethyl)aminomethane • v/v volume to volume ratio (of a solution) • w/w weight to weight ratio (of a solution) B-1.

Sequence of Human FP Receptor (P43088 whole entry): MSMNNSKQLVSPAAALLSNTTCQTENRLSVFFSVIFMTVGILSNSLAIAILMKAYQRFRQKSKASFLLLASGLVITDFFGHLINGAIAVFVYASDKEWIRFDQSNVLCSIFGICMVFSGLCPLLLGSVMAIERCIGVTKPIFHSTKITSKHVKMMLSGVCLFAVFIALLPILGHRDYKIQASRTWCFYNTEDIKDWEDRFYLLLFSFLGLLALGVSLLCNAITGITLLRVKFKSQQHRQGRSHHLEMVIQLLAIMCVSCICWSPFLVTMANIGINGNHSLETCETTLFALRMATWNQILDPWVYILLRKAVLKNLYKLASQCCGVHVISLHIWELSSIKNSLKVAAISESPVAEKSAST

| IC50 | Compound |
| --- | --- |
| 9 nM | O=C(O)c1ccc(NC(=O)c2c(Cl)c(-c3ccccc3)nc3ccc(I)cc23)c(F)c1 [Example 75, 4-{[(3-Chloro-6-iodo-2-phenylquinolin-4-yl)carbonyl]amino}-3-fluorobenzoic acid] |
| 301 nM | O=C(O)c1cc(F)c(NC(=O)c2c(C(F)(F)F)c(-c3ccccc3)nc3ccc(Br)cc23)c(Br)c1 [Example 62, 3-Bromo-4-({[6-bromo-2-phenyl-3-(trifluoromethyl)quinolin-4-yl]carbonyl}amino)-5-fluorobenzoic acid] |
| 437 nM | O=C(O)c1ccc(NC(=O)c2c(C(F)(F)F)c(-c3ccccc3)nc3ccc(Br)cc23)c(F)c1 [Example 57, 4-({[6-Bromo-2-phenyl-3-(trifluoromethyl)quinolin-4-yl]carbonyl}amino)-3-fluorobenzoic acid] |
| 25 nM | Cc1c(-c2ccccc2)nc2cc(Cl)c(Br)cc2c1C(=O)Nc1ccc(C(=O)O)cc1F [Example 41, 4-{[(6-Bromo-7-chloro-3-methyl-2-phenylquinolin-4-yl)carbonyl]amino}-3-fluorobenzoic acid] |
| 245 nM | CCc1ccc2nc(-c3ccccc3)c(C)c(C(=O)Nc3ccc(C(=O)O)cc3F)c2c1 [Example 32, 4-{[(6-Ethyl-3-methyl-2-phenylquinolin-4-yl)carbonyl]amino}-3-fluorobenzoic acid] |
| 617 nM | Cc1cc(C(=O)O)ccc1NC(=O)c1c(C)c(-c2ccccc2)nc2ccc(Br)cc12 [Example 14, 4-{[(6-Bromo-3-methyl-2-phenylquinolin-4-yl)carbonyl]amino}-3-methylbenzoic acid] |
| 17 nM | Cc1c(-c2ccccc2)nc2ccc(Br)cc2c1C(=O)Nc1ccc(C(=O)O)cc1SC(F)(F)F [Example 28, 4-{[(6-Bromo-3-methyl-2-phenylquinolin-4-yl)carbonyl]amino}-3-[(trifluoromethyl)sulfanyl]benzoic acid] |
| 905 nM | Cc1nc(C(=O)O)ccc1NC(=O)c1c(C)c(-c2ccccc2)nc2ccc(Br)cc12 [Example 5, 5-{[(6-Bromo-3-methyl-2-phenylquinolin-4-yl)carbonyl]amino}-6-methylpyridine-2-carboxylic acid] |
| 205 nM | Cc1c(-c2ccccc2F)nc2ccc(Br)cc2c1C(=O)Nc1ccc(C(=O)O)cc1F [Example 45, 4-({[6-Bromo-2-(2-fluorophenyl)-3-methylquinolin-4-yl]carbonyl}amino)-3-fluorobenzoic acid] |
| 86 nM | Cc1c(-c2ccccc2)nc2ccc(Br)cc2c1C(=O)Nc1ccc(C(=O)O)cc1S(C)(=O)=O [Example 26, 4-{[(6-Bromo-3-methyl-2-phenylquinolin-4-yl)carbonyl]amino}-3-(methylsulfonyl)benzoic acid] |
| 197 nM | Cc1c(-c2ccccc2)nc2ccc(Br)cc2c1C(=O)Nc1ccc(C(N)=O)cc1 [Example 47, 6-Bromo-N-(4-carbamoylphenyl)-3-methyl-2-phenylquinoline-4-carboxamide] |
| 52 nM | Cc1c(-c2ccc(F)cc2)nc2ccc(Br)cc2c1C(=O)Nc1ccc(C(=O)O)cc1F [Example 43, 4-({[6-Bromo-2-(4-fluorophenyl)-3-methylquinolin-4-yl]carbonyl}amino)-3-fluorobenzoic acid] |
| 650 nM | CC(=O)Nc1cc(C(=O)O)ccc1NC(=O)c1c(C)c(-c2ccccc2)nc2ccc(Br)cc12 [Example 19, 3-Acetamido-4-{[(6-bromo-3-methyl-2-phenylquinolin-4-yl)carbonyl]amino}benzoic acid] |
| 39 nM | O=C(O)c1ccc(NC(=O)c2c(CF)c(-c3ccccc3)nc3ccc(Br)cc23)c(F)c1 [Example 37, 4-({[6-Bromo-3-(fluoromethyl)-2-phenylquinolin-4-yl]carbonyl}amino)-3-fluorobenzoic acid] |
| 557 nM | Cc1c(-c2ccccc2)nc2c(C)cc(Br)cc2c1C(=O)Nc1ccc(C(=O)O)cc1 [Example 58, 4-{[(6-Bromo-3,8-dimethyl-2-phenylquinolin-4-yl)carbonyl]amino}benzoic acid] |
| 530 nM | CCNC(=O)Nc1cc(C(=O)O)ccc1NC(=O)c1c(C)c(-c2ccccc2)nc2ccc(Br)cc12 [Example 20, 4-{[(6-Bromo-3-methyl-2-phenylquinolin-4-yl)carbonyl]amino}-3-[(ethylcarbamoyl)amino]benzoic acid] |
| 102 nM | Cc1c(-c2ccccc2)nc2ccc(Br)cc2c1C(=O)Nc1ccc(C(N)=O)cc1F [Example 48, 6-Bromo-N-(4-carbamoyl-2-fluorophenyl)-3-methyl-2-phenylquinoline-4-carboxamide] |
| 335 nM | Cc1c(-c2ccccc2)nc2ccc(Br)cc2c1C(=O)Nc1ccc(C(=O)O)cc1N [Example 18, 3-Amino-4-{[(6-bromo-3-methyl-2-phenylquinolin-4-yl)carbonyl]amino}benzoic acid] |

| IC50 | Compound |
| --- | --- |
| 165 nM | Cc1ccc2nc(-c3ccccc3)c(C)c(C(=O)Nc3ccc(C(=O)O)cc3F)c2c1 [Example 31, 4-{[(3,6-Dimethyl-2-phenylquinolin-4-yl)carbonyl]amino}-3-fluorobenzoic acid] |
| 272 nM | Cc1c(-c2ccccc2)nc2ccc(C(C)C)cc2c1C(=O)Nc1ccc(C(=O)O)cc1F [Example 33, 3-Fluoro-4-{[(6-isopropyl-3-methyl-2-phenylquinolin-4-yl)carbonyl]amino}benzoic acid] |
| 362 nM | Cc1c(-c2ccccc2)nc2ccc(C(F)F)cc2c1C(=O)Nc1ccc(C(=O)O)cc1F [Example 64, 4-({[6-(Difluoromethyl)-3-methyl-2-phenylquinolin-4-yl]carbonyl}amino)-3-fluorobenzoic acid] |
| 154 nM | Cc1c(-c2ccccc2)nc2c(C)cc(Br)cc2c1C(=O)Nc1ccc(C(=O)O)cc1F [Example 78, 4-{[(6-Bromo-3,8-dimethyl-2-phenylquinolin-4-yl)carbonyl]amino}-3-fluorobenzoic acid] |
| 41 nM | Cc1c(-c2ccccc2)nc2ccc(Br)cc2c1C(=O)Nc1ccc(C(=O)O)cc1Br [Example 10, 3-Bromo-4-{[(6-bromo-3-methyl-2-phenylquinolin-4-yl)carbonyl]amino}benzoic acid] |
| 285 nM | CNC(=O)c1ccc(NC(=O)c2c(C)c(-c3ccccc3)nc3ccc(Br)cc23)c(F)c1 [Example 56, 6-Bromo-N-[2-fluoro-4-(methylcarbamoyl)phenyl]-3-methyl-2-phenylquinoline-4-carboxamide] |
| 150 nM | Cc1c(-c2ccccc2)nc2ccc(Br)cc2c1C(=O)Nc1c(Cl)cc(C(=O)O)cc1Cl [Example 13, 4-{[(6-Bromo-3-methyl-2-phenylquinolin-4-yl)carbonyl]amino}-3,5-dichlorobenzoic acid] |
| 65 nM | Cc1c(-c2ccccc2)nc2ccc(Br)cc2c1C(=O)Nc1ccc(C(=O)O)cc1Cl [Example 9, 4-{[(6-Bromo-3-methyl-2-phenylquinolin-4-yl)carbonyl]amino}-3-chlorobenzoic acid] |
| 246 nM | Cc1c(-c2ccccc2)nc2ccc(S(F)(F)(F)(F)F)cc2c1C(=O)Nc1ccc(C(=O)O)cc1F [Example 63, 3-Fluoro-4-({[3-methyl-6-(pentafluoro-λ^6-sulfanyl)-2-phenylquinolin-4-yl]carbonyl}amino)benzoic acid] |
| 170 nM | Cc1c(-c2ccccc2)nc2ccc(Br)cc2c1C(=O)Nc1cnc(C(=O)O)cn1 [Example 3, 5-{[(6-Bromo-3-methyl-2-phenylquinolin-4-yl)carbonyl]amino}pyrazine-2-carboxylic acid] |
| 204 nM | COc1cc(C(=O)O)ccc1NC(=O)c1c(C)c(-c2ccccc2)nc2ccc(Br)cc12 [Example 21, 4-{[(6-Bromo-3-methyl-2-phenylquinolin-4-yl)carbonyl]amino}-3-methoxybenzoic acid] |
| 6 nM | Cc1c(-c2ccccc2)nc2ccc(I)cc2c1C(=O)Nc1ccc(C(=O)O)cc1F [Example 30, 3-Fluoro-4-{[(6-iodo-3-methyl-2-phenylquinolin-4-yl)carbonyl]amino}benzoic acid] |
| 720 nM | Cc1c(-c2ccccc2)nc2ccc(Br)cc2c1C(=O)Nc1ccc(C(=O)O)cc1[S+](C)[O-] (stereo not drawn) [Example 25, 4-{[(6-Bromo-3-methyl-2-phenylquinolin-4-yl)carbonyl]amino}-3-(methylsulfinyl)benzoic acid] |
| 265 nM | O=C(O)c1ccc(NC(=O)c2c(C(F)F)c(-c3ccccc3)nc3ccc(Br)cc23)c(F)c1 [Example 38, 4-({[6-Bromo-3-(difluoromethyl)-2-phenylquinolin-4-yl]carbonyl}amino)-3-fluorobenzoic acid] |
| 45 nM | Cc1c(-c2ccccc2)nc2ccc(Br)cc2c1C(=O)Nc1ccc(C(=O)O)cc1C(F)(F)F [Example 15, 4-{[(6-Bromo-3-methyl-2-phenylquinolin-4-yl)carbonyl]amino}-3-(trifluoromethyl)benzoic acid] |
| 22 nM | Cc1c(-c2ccccc2)nc2ccc(Br)cc2c1C(=O)Nc1c(F)cc(C(=O)O)cc1F [Example 12, 4-{[(6-Bromo-3-methyl-2-phenylquinolin-4-yl)carbonyl]amino}-3,5-difluorobenzoic acid] |
| 890 nM | Cc1c(-c2ccccc2)nc2ccc(F)cc2c1C(=O)Nc1ccc(C(=O)O)cc1F [Example 29, 3-Fluoro-4-{[(6-fluoro-3-methyl-2-phenylquinolin-4-yl)carbonyl]amino}benzoic acid] |

| Compound | IC50 |
| --- | --- |
| Cc1c(-c2ccccc2)nc2ccc([Si](C)(C)C)cc2c1C(=O)Nc1ccc(C(=O)O)cc1F [Example 36, 3-Fluoro-4-({[3-methyl-2-phenyl-6-(trimethylsilyl)quinolin-4-yl]carbonyl}amino)benzoic acid] | 78 nM |
